Test results as given in patent US4533541A, “Tin-117m-labeled stannic (Sn^4+) chelates” (The United States of America as represented by the United …, priority 1983, dated 1985).
Like-named read-outs stand apart in the source and are kept apart here.

Settings: mouse, in vivo; for Blood, % Dose per Gram / Bone, % Dose per Gram / Kidneys, % Dose per Gram / Liver, % Dose per Gram / % Dose remaining in whole body: iv
Protocol: Tissue distribution studies were done in normal BNL mice. All animals were injected with the appropriate radiopharmaceutical intravenously. A number of time periods up to 7 days after injection were used to collect the data.
Comparative studies were conducted using Sn^2+ chloride (pH 2 and 7), Sn^4+ chloride (pH 2), and Sn(2+ and 4+)-labeled chelates (MDP, DTPA, EHDP, and PYP).
Tissue distribution in mice of Sn(2+ and 4+) chloride (pH 2 and 7), and of the stannous and stannic chelates of MDP, DTPA, PYP, and EHDP is shown in Table 1.

Ratio, bone to Blood (30 min): 29
Ratio, bone to Kidney (30 min): 8.1
Ratio, bone to Liver (30 min): 8.4
Ratio, bone to Muscle (30 min): 93
Ratio, bone to Blood (180 min): 85
Ratio, bone to Kidney (180 min): 11
Ratio, bone to Liver (180 min): 13
Ratio, bone to Muscle (180 min): 270
Ratio, bone to Blood (1440 min): 205
Ratio, bone to Kidney (1440 min): 18
Ratio, bone to Liver (1440 min): 14
Ratio, bone to Muscle (1440 min): 375
Blood, % Dose per Gram (0.5 h): 0.41 % Dose per Gram
Bone, % Dose per Gram (0.5 h): 11.80 % Dose per Gram
Kidneys, % Dose per Gram (0.5 h): 1.46 % Dose per Gram
Liver, % Dose per Gram (0.5 h): 1.41 % Dose per Gram
% Dose remaining in whole body (30 min): 33.5 % Dose
% Dose remaining in whole body (180 min): 30.2 % Dose
Blood, % Dose per Gram (3 h): 0.14 % Dose per Gram
Bone, % Dose per Gram (3 h): 12.30 % Dose per Gram
Kidneys, % Dose per Gram (3 h): 1.11 % Dose per Gram
Liver, % Dose per Gram (3 h): 0.97 % Dose per Gram
% Dose remaining in whole body (1440 min): 22.5 % Dose
Blood, % Dose per Gram (24 h): 0.05 % Dose per Gram
Bone, % Dose per Gram (24 h): 10.30 % Dose per Gram
Kidneys, % Dose per Gram (24 h): 0.57 % Dose per Gram
Liver, % Dose per Gram (24 h): 0.73 % Dose per Gram
Compound: O.O.O=P([O-])([O-])CP(=O)([O-])[O-].[99Tc+4] [^99m Tc-MDP]
